Laboratory results taken from publication PMC12598805, “Crystal Structure–Activity Relationship of Some MeO Phenylacrylonitriles: Dual Antimicrobial–Cytotoxic Effects and in Silico Perspectives” (ChemistryOpen, 2025).
In brackets after ≈: the same amount, converted by molar mass. Read-outs that look alike come from different tables or passages of the source.

What was measured:
Assay type in all cases: cell-based
[1] = tested on: human breast carcinoma (MCF‐7) cells; experiment: Cytotoxicity, CCK8 cell viability; conditions: for IC50: Homo sapiens, MCF7, read-out: Cytotoxic activity IC50
From the text: (§1) We investigated the cytotoxic effects of acrylonitrile derivatives 2(a–c) on human lung carcinoma (A549, CCL‐185) cells purchased from American Culture Collection and human breast carcinoma (MCF‐7) cells purchased from Republic of Turkey Ministry of Agriculture and Forestry Şap Institute, (HUKUK, 00092502), In addition, mouse fibroblast cells (L929, CCL‐1) purchased from American Culture Collection were used to observe the effects of the compounds on healthy cells. In 25 T Flask, A549 cells were grown in dulbecco's modified eagle's medium, MCF‐7, and L929 cells were grown in eagle's minimum essential medium (EMEM), 10% fetal bovine serum and 1% Penicillin‐Streptomycin at 37 °C in a 5% CO2 and 100% humidified incubator. Cell proliferation was checked every day. Cells were taken into the experiment when the cell density reached 70% to 80%. (See Supporting Information for experimental preparation of biological studies).
(§2) The compounds 2a, 2b, and 2c were dissolved in 99.8% Dimethyl sulfoxide (DMSO) respectively, as
(§3) 10 mM main stock. To prepare the doses of acrylonitrile compounds used in the experiment to be
(§4) applied to the cells, five different concentrations of 31.25; 62.5; 125; 250 and 500 μM were prepared
(§5) by diluting the main stock solutions (10 mM) with the medium selected according to the cells. 5-
(§6) Fluorouracil (5-FU) was selected as a positive control in the study. After the 5-FU main stock solution
(§7) was dissolved with DMSO to be 10 mM, the concentrations to be used were diluted with the selected
(§8) media and made ready for the experimental plan. The concentrations used for 5-FU were prepared in
(§9) the same doses used for acrylonitrile derivatives. For the negative control group, groups containing
(§10) only media and no substance were used. Prepared acrylonitrile compounds and 5-FU concentrations
(§11) were added to the wells in three replicates for each dose, and their effects on cell viability at 24 and 48
(§12) Trypan blue solution (Gibco, 1525061) was used to distinguish between living and dead cells in the
(§13) study. Trypan blue passes uncontrollably through the membrane of dead cells that have lost their cell
(§14) membrane integrity and stains the cell blue. Living cells, on the other hand, are not stained because
(§15) Live cell counts were performed using trypan blue using a
(§16) cell counter (Logos Luna II).
(§17) In order to detach the cells adhering to the flasks from the bottom, 500 μL of 0.25% Trypsin-EDTA
(§18) (Gibco, 15400054) solution was added and treated for five minutes.
(§19) detach from the bottom under an inverted microscope (Zeiss Primovert, Germany), medium containing
(§20) 10% FBS was added. After centrifugation at 300 g for 5 minutes and discarding the medium, 1 mL of
(§21) medium was added and the cells were seeded into 96-well culture dishes as 1x10^4 cells in 100 μL per
(§22) Cell Counting Kit 8 (CCK8; Medchem, 146436) was used to determine cell viability. After adding 20 μL
(§23) of CCK8 solution to each well in the dark, 96-well culture dishes were wrapped with aluminum foil and
(§24) kept in a CO2 incubator at 37 °C for 2 hr. Then, it was automatically read with a microplate reader
(§25) (Chromate) at 450 and 630 nm wavelengths. The following formula was used to determine cell
(§26) % Viability = (Sample Well−Blank) (Negative Control−Blank)×100 (1)
(§27) The half-maximal inhibitory concentration (IC50) was calculated as 50% cell death causing dose
(§28) compared to the control group. All data are given as the mean percent fraction of control ± SEM.
(§29) Statistical analysis was done by one-way analysis of variance (ANOVA), followed by Tukey’s multiple
(§30) comparison tests. IBM SPSS Statistics 22 was used to utilize statistical analysis. […]

[2] = tested on: human lung carcinoma (A549, CCL‐185) cells; experiment: Cytotoxicity, CCK8 cell viability; conditions: for suppressive effect on cell proliferation / viability: 31.25 to 500 μM; for cell suppressive effect: concentrations of 31.25, 62.5, 125 and 250 μM; for IC50: Homo sapiens, read-out: Cytotoxic activity IC50
From the text: as §1, §2, §3, §4, §5, §6, §7, §8, §9, §10, §11, §12, §13, §14, §15, §16, §17, §18, §19, §20, §21, §22, §23, §24, §25, §26, §27, §28, §29, §30

[3] = tested on: Escherichia coli (ATCC 25922); experiment: MBC by sub-culture from wells without growth; conditions: ATCC25922, E.coli
Experimental: (§31) Escherichia coli (ATCC 25922) […]
(§32) ATCC: American Type Culture Collection; NRRL: Northern Regional Research Laboratory The compounds 2(a-c) obtained could only be completely solubilised with dimethyl sulphoxide (DMSO) and the highest possible stock solutions of 50 mg.mL-1 were prepared. […]
(§33) 3.1. Determination of Minimum Inhibition Concentration (MIC)
(§34) The minimum inhibition concentration (MIC) values of the compounds 2(a-c) against the test bacteria used in the study were determined according to the broth microdilution method.[1-2] MHB or SDB was used as test medium and bacterial and yeast suspensions were prepared at 0.5 Mc Farland concentration for each test bacteria. Double layer serial dilutions were prepared in "U" type 96-well microtiter plates. Medium+bacteria suspensions containing only medium in the first row, medium+bacteria in the second row and the final concentrations of the synthesised substances in the other rows between 25 mg.mL-1 and […] were added to the wells with a final volume of 200
(§35) μL. Ampicillin, Kanamycin and Amphotericin B standard antibiotics were used as positive controls.
(§36) Bacteria were incubated at 37±0.1 °C and C. albicans at 30±0.1 °C for 24-48 hours and the lowest concentration without growth was determined as MIC. Tests were performed in two parallel runs and mean values were given as a result. […]

[4] = tested on: Escherichia coli (ATCC 25922); experiment: Broth microdilution MIC; conditions: ATCC25922, E.coli
Experimental: as §31, §32, §33, §34, §35, §36

Row | SMILES | IC50 ([1]; MCF‐7, 24 h) | IC50 ([1]; MCF‐7, 48 h) | decrease in cell viability ([1]; MCF‐7, 24 h, 31.25 μM) | decrease in cell viability ([1]; MCF‐7, 24 h, 62.5 μM) | decrease in cell viability ([1]; MCF‐7, 24 h, 125 μM) | decrease in cell viability ([1]; MCF‐7, 24 h, 250 μM) | decrease in cell viability ([1]; MCF‐7, 24 h, 500 μM) | decrease in cell viability ([1]; MCF‐7, 48 h, 31.25 μM) | decrease in cell viability ([1]; MCF‐7, 48 h, 62.5 μM) | decrease in cell viability ([1]; MCF‐7, 48 h, 125 μM) | decrease in cell viability ([1]; MCF‐7, 48 h, 250 μM) | decrease in cell viability ([1]; MCF‐7, 48 h, 500 μM) | decrease in cell viability ([2]; A549, 24 h, 500 μM) | suppressive effect on cell proliferation / viability ([2]; A549, 24 h) | cell suppressive effect ([2]; A549, 24 h) | decrease in cell viability ([2]; A549, 48 h, 500 μM) | IC50 ([2]; A549, 24 h) | IC50 ([2]; A549, 48 h) | MIC [4] | other results
1 | COc1ccc(C=C(C#N)c2ccccc2)cc1 [2a, 3‐(4‐methoxyphenyl)‐2‐phenylacrylonitrile] | 131 µM | 44 µM | 32% | 32% | 48% | 75% | 92% | 44% | 60% | 60% | 60% | 99% | 20% | did not show any cytotoxic activity | no cell suppressive effect | 94% | > 500 µM | 373 µM | 2.5 mg/mL (≈ 10.6 mM) | decrease in cell viability ([2]; A549, 48 h, 250 μM): 8%; MBC [3]: 5 mg/mL (≈ 21.3 mM)
2 | COc1ccc(/C=C(\C#N)c2ccc(F)cc2)cc1 [2b] | 363 µM | 34 µM | 23% | 26% | 17% | 23% | 82% | 49% | 68% | 71% | 86% | 91% | 9% |  | no cell suppressive effect | 71% | > 500 µM | 422 µM | 25 mg/mL (≈ 98.7 mM) | cell suppressive effect ([2]; A549, 48 h): no cell suppressive effect
3 | COc1ccc(/C=C(\C#N)c2cc(C(F)(F)F)cc(C(F)(F)F)c2)cc1 [2c] | 409 µM | 294 µM | 9% | 10% | 11% | 17% | 69% | 25% | 27% | 26% | 42% | 85% |  | no suppressive effect |  | 56% | > 500 µM | 473 µM | 25 mg/mL (≈ 67.3 mM) | 
